{"source": "patent US20040175817A1", "about": "“Crystallised catalytic domain of matrix metalloproteinase 9 (mmp9) and the use of its three dimensional structure to design mmp9 modulators” (priority 2001, published 2004)", "biological_target": "T1, MMP9(107-216,391-443) (Homo sapiens, UniProt P14780, DEL217-390)", "T1 construct": "phenylalanine (107) and a stop codon was introduced, via the 3′ primer, after residue 443; made in house; host or cells: E. coli BL21(DE3)", "T1 sequence (P14780 with tags, fused parts or gaps DEL217-390 limits assumed)": "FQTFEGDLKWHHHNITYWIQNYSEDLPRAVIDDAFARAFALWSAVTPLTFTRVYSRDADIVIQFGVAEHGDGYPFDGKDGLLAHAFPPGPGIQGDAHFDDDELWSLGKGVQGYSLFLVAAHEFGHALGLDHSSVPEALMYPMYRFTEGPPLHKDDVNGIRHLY", "assay": "Auto-proteolysis (autodegradation) of MMP9 catalytic domain during refolding, storage and crystallisation", "type": "biochemical", "description": "Another major hurdle in the crystallisation and structure determination of MMP9 is that the MMP9 catalytic domain is aggressively autolytic. We therefore purified wild-type MMP9 in the presence of an inhibitor and then crystallised the purified complex. Addition of an inhibitor during the refolding step following urea denaturation is essential for prevention of N-terminal degradation and the formation of well-ordered crystals.\nFollowing expression in E. coli, MMP9(107-216,391-443) is mainly located in the inclusion body fraction. The E. coli were harvested, washed and lysed and centrifuged to isolate the insoluble protein. The insoluble fraction was then suspended in 6M Urea to solubilise the protein. To generate active MMP9(107-216,391-443) the solubilised material was dialysed sequentially versus 4M, 1M and 0M Urea. […] Post dialysis, the protein was subjected to zinc chelate chromatography which selectively bound the MMP9 catalytic domain. A further chromatography step was then carried out using the tripeptide Pro-Leu-Gly bound to sepharose which bound correctly folded MMP9 catalytic domain. The protein was then eluted by addition of an MMP9 inhibitor. Expression and refolding of the [E402Q]MMP9(107-216,391-443) construct was carried out as for the wild type construct except that no acetohydroxamic acid was added to the refold buffers. […]", "note": "Entries after “also recorded” stand apart in the source; their conditions may differ.", "data": [{"smiles": "CC(=O)NO", "note": "[acetohydroxamic acid]", "values": [{"measurement": "auto-proteolysis of the N-terminus / autodegradation of the wild type MMP9 protein during refolding", "setting": "added to the refold buffers, wild type MMP9 catalytic domain", "result": "prevent autodegradation; also recorded: inhibited auto-proteolysis of the N-terminus of the protein"}, {"measurement": "autodegradation of the wild type MMP9 protein during storage or during the period of crystallisation", "setting": "storage or crystallisation period, wild type MMP9", "result": "not sufficiently potent to prevent autodegradation"}]}]}
